{
  "source": "patent US20160220587A1",
  "about": "“VITAMIN D COMPLEXES WITH DE-VDBP AND AN UNSATURATED FATTY ACID, AND THEIR USE IN THERAPY” (priority 2013, published 2016)",
  "molecules": {"B1": {"name": "[Vitamin D3 1 nM/de-VDBP 1 ng/ml/oleic acid 1/1]: trimeric complex of vitamin D3 and oleic acid bound to de-VDBP via hydrophobic interactions (protein, UniProt P02774 17-474, looked up)", "Vitamin D-binding protein": "LERGRDYEKNKVCKEFSHLGKEDFTSLSLVLYSRKFPSGTFEQVSQLVKEVVSLTEACCAEGADPDCYDTRTSALSAKSCESNSPFPVHPGTAECCTKEGLERKLCMAALKHQPQEFPTYVEPTNDEICEAFRKDPKEYANQFMWEYSTNYGQAPLSLLVSYTKSYLSMVGSCCTSASPTVCFLKERLQLKHLSLLTTLSNRVCSQYAAYGEKKSRLSNLIKLAQKVPTADLEDVLPLAEDITNILSKCCESASEDCMAKELPEHTVKLCDNLSTKNSKFEDCCQEKTAMDVFVCTYFMPAAQLPELPDVELPTNKDVCDPGNTKVMDKYTFELSRRTHLPEVFLSKVLEPTLKSLGECCDVEDSTTCFNAKGPLLKKELSSFIDKGQELCADYSENTFTEYKKKLAERLKAKLPDATPTELAKLVNKHSDFASNCCSINSPPLYCDSEIDAELKNIL", "modifications": "deglycosylated; vitamin D3 and oleic acid bound"}},
  "key": {"[1]": {"tested_on": "MCF-7 human breast cancer cell", "test": "MCF-7 cell proliferation (Calbiochem Rapid Cell Proliferation Kit)", "type": "cell-based", "conditions": "for Absorbance units (×10^3), cell proliferation: control (no addition) 450 ± 21", "protocol": "The biological activity of the molecules and the multimolecular complexes described in the preceding sections was tested in an in vitro system (MCF-7 human breast cancer cell cultures) that is routinely used to assess the biological activity of vitamin D3 and of the other components of the vitamin D axis (Evid Based Complement Alternat Med. 2012; 2012:310872. Oncol Rep. 2012 December; 28(6):2131-7. Anticancer Res. 2012 March; 32(3):739-46). Human breast carcinoma cells MCF-7 were challenged with different concentration of vitamin D3, de-VDBP, and [vitamin D3/de-VDBP/oleic acid]. […] The same level of inhibition, however, could be achieved with 1000 fold less vitamin D3 when it was complexed with de-VDBP and oleic acid."}, "[2]": {"molecular_target": "T1, VDBP (Homo sapiens, UniProt P02774)", "T1 sequence (P02774 17-474)": "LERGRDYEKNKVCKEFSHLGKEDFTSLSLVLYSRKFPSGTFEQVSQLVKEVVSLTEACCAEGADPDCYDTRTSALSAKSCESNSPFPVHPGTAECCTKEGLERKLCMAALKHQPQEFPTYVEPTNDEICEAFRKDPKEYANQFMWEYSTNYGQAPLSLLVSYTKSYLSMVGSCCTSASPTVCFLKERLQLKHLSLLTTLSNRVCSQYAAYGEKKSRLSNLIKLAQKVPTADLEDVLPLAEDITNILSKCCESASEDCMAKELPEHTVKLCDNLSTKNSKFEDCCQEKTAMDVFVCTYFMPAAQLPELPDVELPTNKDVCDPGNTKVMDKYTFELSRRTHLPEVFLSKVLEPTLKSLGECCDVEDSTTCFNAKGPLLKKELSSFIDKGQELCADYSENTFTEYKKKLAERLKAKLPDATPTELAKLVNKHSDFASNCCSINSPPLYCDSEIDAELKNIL", "conditions": "relative to vitamin D3; Am J Kidney Dis, 1998; 32:S25-39; cited from earlier work"}},
  "note": "Where no end group is shown, it is not given here.",
  "data": [
    {"molecule": "[2H]C([2H])=C1/C(=C([2H])\\C=C2/CCC[C@]3(C)[C@@H]([C@H](C)CCCC(C)(C)O)CC[C@@H]23)C[C@@H](O)C[C@@H]1O", "note": "[Vitamin D3, 1α,25-Dihydroxyvitamin D3 (6,19,19-d3)]", "values": [
      {"measurement": "Absorbance units (×10^3), cell proliferation", "setting": "[1]; Vitamin D3 1 nM", "value": "425 ± 10 Absorbance units (×10^3)"},
      {"measurement": "Absorbance units (×10^3), cell proliferation", "setting": "[1]; Vitamin D3 1 uM", "value": "55 ± 10 Absorbance units (×10^3)"},
      {"measurement": "Concentration giving maximal inhibition of MCF-7 proliferation", "setting": "[1]; very high, non-physiological concentration", "value": 1, "unit": "µM"}
    ]},
    {"molecule": "C=C1/C(=C\\C=C2/CCC[C@]3(C)[C@@H]([C@H](C)/C=C/[C@@H](O)C4CC4)CC[C@@H]23)C[C@@H](O)C[C@@H]1O", "note": "[calcipotriene]", "values": [
      {"measurement": "VDBP affinity", "setting": "[2]", "value": "low"}
    ]},
    {"molecule": "C=C1/C(=C\\C=C2/CCC[C@]3(C)[C@@H]([C@H](C)OCCC(C)(C)O)CC[C@@H]23)C[C@@H](O)C[C@@H]1O", "note": "[22-oxacalcitriol]", "values": [
      {"measurement": "VDBP affinity", "setting": "[2]", "value": "low"}
    ]},
    {"molecule": "de-VDBP: vitamin D binding protein de-glycosylated at position Thr 420 by sequential removal of sialic acid and galactose (DSTTCFNAKGPLLKKELSSFIDKGQELC; cysteine pairing not given here; also: de-glycosylated at Thr 420 by removal of sialic acid and galactose; listed as Homo sapiens)", "values": [
      {"measurement": "Absorbance units (×10^3), cell proliferation", "setting": "[1]; de-VDBP 1 ng/ml", "value": "395 ± 37 Absorbance units (×10^3)"}
    ]},
    {"molecule": "B1", "values": [
      {"measurement": "Absorbance units (×10^3), cell proliferation", "setting": "[1]; Vitamin D3 1 nM / de-VDBP 1 ng/ml / oleic acid ratio 1/1", "value": "55 ± 9 Absorbance units (×10^3)"},
      {"measurement": "Fold less vitamin D3 needed for the same level of inhibition", "setting": "[1]; versus 1 uM vitamin D3 alone", "value": 1000, "unit": "fold"}
    ]}
  ]
}
